Experimental data published in ChEMBL document CHEMBL2150912, “Discovery of novel dihydroimidazothiazole derivatives as p53-MDM2 protein-protein interaction inhibitors: synthesis, biological evaluation and structure-activity relationships” (Bioorg Med Chem Lett, 2012).

Molecular target: E3 ubiquitin-protein ligase Mdm2 (Homo sapiens, UniProt Q00987)
Experiment: Inhibition of GST-tagged MDM2 binding to p53 by ELISA

E3 ubiquitin-protein ligase Mdm2, sequence (Q00987 whole entry): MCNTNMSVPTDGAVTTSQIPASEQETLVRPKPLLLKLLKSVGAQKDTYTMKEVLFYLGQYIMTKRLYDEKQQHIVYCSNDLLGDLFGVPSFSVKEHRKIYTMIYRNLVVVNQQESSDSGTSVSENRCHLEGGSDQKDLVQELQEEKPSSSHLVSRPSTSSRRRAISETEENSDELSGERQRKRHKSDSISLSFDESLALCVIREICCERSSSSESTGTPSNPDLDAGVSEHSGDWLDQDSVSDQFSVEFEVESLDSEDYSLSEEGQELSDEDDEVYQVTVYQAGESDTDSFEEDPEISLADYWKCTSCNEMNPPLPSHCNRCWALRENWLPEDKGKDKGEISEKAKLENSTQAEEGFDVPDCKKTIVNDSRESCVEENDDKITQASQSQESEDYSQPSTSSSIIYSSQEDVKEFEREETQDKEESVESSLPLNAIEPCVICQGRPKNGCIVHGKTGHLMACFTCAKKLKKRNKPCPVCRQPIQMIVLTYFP

SMILES | IC50
COCC1=C(C(=O)N2CCNC(=O)C2)SC2=N[C@@H](c3ccc(Cl)cc3)[C@@H](c3ccc(Cl)cc3)N21 (racemic) | 7100 nM
CCC1=C(C(=O)N2CCNC(=O)C2)SC2=N[C@@H](c3ccc(Cl)cc3)[C@@H](c3ccc(Cl)cc3)N21 (racemic) | 1800 nM
CC(C)C1=C(C(=O)N2CCNC(=O)C2)SC2=N[C@@H](c3ccc(Cl)cc3)[C@@H](c3ccc(Cl)cc3)N21 (racemic) | 260 nM
CC(=O)N1CCN(C(=O)C2=C(C(C)C)N3C(=N[C@@H](c4ccc(Cl)cc4)[C@H]3c3ccc(Cl)cc3)S2)CC1 (racemic) | 840 nM
CC(C)C1=C(C(=O)N2CCNC(=O)CC2)SC2=N[C@@H](c3ccc(Cl)cc3)[C@@H](c3ccc(Cl)cc3)N21 (racemic) | 1100 nM
CC(C)C1=C(C(=O)N2CCN(CCO)CC2)SC2=N[C@@H](c3ccc(Cl)cc3)[C@@H](c3ccc(Cl)cc3)N21 (racemic) | 1800 nM
CC(C)C1=C(C(=O)N2CCNC(=O)C2)SC2=NC(c3ccc(Cl)cc3)C(c3ccc(Cl)cc3)N21 (single isomer, unassigned; (+)) | 160 nM

Continued by falling IC50, values first:

IC50 | SMILES
11900 nM | CC(C)C1=C(C(=O)N2CCNC(=O)C2)SC2=NC(c3ccc(Cl)cc3)C(c3ccc(Cl)cc3)N21 (single isomer, unassigned; (-))
9500 nM | O=C1CN(C(=O)C2=C(C3CC3)N3C(=N[C@@H](c4ccc(Cl)cc4)[C@H]3c3ccc(Cl)cc3)S2)CCN1 (racemic)
4400 nM | CC(C)C1=C(C(=O)N2CCC(C(=O)N(C)C)CC2)SC2=N[C@@H](c3ccc(Cl)cc3)[C@@H](c3ccc(Cl)cc3)N21 (racemic)
3100 nM | CCCC1=C(C(=O)N2CCNC(=O)C2)SC2=N[C@@H](c3ccc(Cl)cc3)[C@@H](c3ccc(Cl)cc3)N21 (racemic)
3000 nM | CC(C)(C)C1=C(C(=O)N2CCNC(=O)C2)SC2=N[C@@H](c3ccc(Cl)cc3)[C@@H](c3ccc(Cl)cc3)N21 (racemic)
2700 nM | CC1=C(C(=O)N2CCNC(=O)C2)SC2=N[C@@H](c3ccc(Cl)cc3)[C@@H](c3ccc(Cl)cc3)N21 (racemic)
1200 nM | CC(C)C1=C(C(=O)N2CCN(C)CC2)SC2=N[C@@H](c3ccc(Cl)cc3)[C@@H](c3ccc(Cl)cc3)N21 (racemic)
340 nM | CC(C)C1=C(C(=O)N2CCOCC2)SC2=N[C@@H](c3ccc(Cl)cc3)[C@@H](c3ccc(Cl)cc3)N21 (racemic)
140 nM | CC(C)C1=C(C(=O)N2C[C@@H](C)N[C@@H](C)C2)SC2=N[C@@H](c3ccc(Cl)cc3)[C@@H](c3ccc(Cl)cc3)N21 (racemic)
